Measurements reported in patent US8691799B2, “Materials and methods for treatment of cancer and identification of anti-cancer compounds” (priority 2001, dated 2014).
pIC50: −log10 of the molar value. “Also recorded” adds a separate entry of the source. Read-outs that look alike come from different tables or passages of the source.

Key:
[1] = test system: phosphotyrosine Src; experiment: Western blotting for phosphotyrosine Src; type: cell-based, human; conditions: A549 and MDA-MB-468 cells, various concentrations, 4 hr
Description: (§1) Western Blotting. Treated cell samples were lysed in 30 mM Hepes, pH 7.5, 10 mM NaCl, 5 mM MgCl2, 25 mM NaF, 1 mM EGTA, 1% Triton-X-100, 10% glycerol, 2 mM sodium orthovanadate, 10 μg/ml aprotinin, 10 μg/ml soybean trypsin inhibitor, 25 μg/ml leupeptin, 2 mM PMSF, and 6.4 mg/ml p-nitrophenylphosphate. Phospho-STAT3, phospho-AKT, phospho-MEK, and phospho-p42/p44 MAPK antibodies were obtained from Cell Signaling Technologies, Cambridge, Mass. Antibodies to STAT3, JAK2, and phospho-INK were purchased from Santa Cruz Biotechnology, Santa Cruz, Calif. Phospho-JAK2 antibody came from Upstate Biotechnology, Lake Placid, N.Y. Membranes were blocked in either 5% milk in PBS, pH 7.4, containing 0.1% Tween-20 (PBS-T) or 1% BSA in TBS, pH 7.5, containing 0.1% Tween-20 (TBS-T). Phospho-specific antibodies (excepting P-MAPK and P-JNK) were incubated in 1% BSA in TBS-T while all other antibodies were diluted in 5% milk in PBS-T for either 2 hr at room temperature or overnight at 4° C. HRP-conjugated secondary antibodies (Jackson ImmunoResearch) were diluted in 5% milk in either PBS-T or TBS-T at 1:1000 dilution for one hour at room temperature. Western blots were visualized using enhanced chemiluminescence as described previously (Blaskovich, M. A. et al. Nat. Biotechnol., 2000, 18:1065-1070).

[2] = test system: STAT3 DNA-binding activity; experiment: Electrophoretic mobility shift assay (EMSA) of nuclear extracts; type: cell-based; conditions: nuclear extracts from v-Src/NIH 3T3 and A549 cells
Description: Nuclear Extract Preparation and Gel Shift Assay. Nuclear extract preparation and electrophoretic mobility shift assay were carried out as previously described (Turkson, J. et al. Mol. Cell Biol., 1999, 19:7519-7528). The ^32P-radiolabeled oligonucleotide probe is hSIE (high affinity sis-inducible element, m67 variant, 5′-[…]-3′) (SEQ ID NO. 1) that binds STAT1 and STAT3.

[3] = test system: phosphotyrosine STAT3; experiment: Western blotting for phosphotyrosine STAT3 in cancer cell lines; type: cell-based, human
Description: as §1
Immunoprecipitation of STAT3. A549 cells were treated for 4 hr with vehicle or JSI-124, then lysed in 150 mM Hepes, pH 7.5, 150 mM NaCl, 1 mM EDTA, 0.5% Nonidet P-40 (NP-40), 10% glycerol, 5 mM NaF, 1 mM DTT, 1 mM PMSF, 2 mM sodium orthovanadate, and 5 μg/ml leupeptin. Sample lysates were collected and cleared, then 500 μg of lysate was immunoprecipitated with 50 ng STAT3 antibody overnight at 4° C. then rocked with 25 μl Protein A/G PLUS agarose (Santa Cruz Biotechnology) for 1 hr at 4° C. Samples were washed four times with lysis buffer then boiled in 2×SDS-PAGE sample buffer and run on 10% SDS-PAGE gel. Protein was transferred to nitrocellulose and then blotted as above for both phospho-specific STAT3 and STAT3.

[4] = test system: B16-F10 tumors; experiment: Antitumor activity, B16-F10 melanoma in C57 black mice; type: in vivo; conditions: 1 mg/Kg/day
Text: Antitumor Activity in the Nude Mouse Tumor Xenograft Model. Nude mice and C57 BL-6 black mice (National Cancer Institute, Bethesda, Md.) were maintained in accordance with the Institutional Animal Care and Use Committee (IACUC) procedures and guidelines. v-Src- and oncogenic H-Ras-transformed NIH 3T3, A549, MDA-MB-468 and Calu-1 cells were harvested, resuspended in PBS and injected s.c. into the right and left flank (10×10^6 cells per flank) of 8 week old female nude mice as reported previously (Sun, J. et al. Cancer Res., 1999, 59:4919-4926). Similarly, murine B16-F10 Melanoma cells were injected s.c. into the right and left flank (10^6 cells per flank) of C57 black mice. When tumors reached about 150 mm^3, animals were randomized (five animals per group; two tumors per animal) and dosed i.p. with 0.2 ml once daily. Control animals received DMSO (20%) vehicle whereas treated animals were injected with JSI-124 (1 mg/kg/day) in 20% DMSO in water. The tumor volumes were determined by measuring the length (l) and the width (w) and calculating the volume (V=1w^2/2) as described previously (Sun, J. et al. Cancer Res., 1999, 59:4919-4926). Statistical significance between control and treated animals were evaluated by using Student's t-test. […] Percent surviving mice was determined by monitoring the death of mice until all mice died. […]

Compound: CC(C)(O)/C=C/C(=O)[C@](C)(O)[C@H]1[C@H](O)C[C@@]2(C)[C@@H]3CC=C4[C@@H](C=C(O)C(=O)C4(C)C)[C@]3(C)C(=O)C[C@]12C [JSI-124, cucurbitacin I]
- levels of tyrosine phosphorylated Src [1]: not those of tyrosine phosphorylated Src
- STAT3 DNA-binding activity (EMSA) [2]: greatly reduced
- levels of tyrosine phosphorylated STAT3 (Western blot) ([3]; 10 μM, 4 hr, A549, MDA-MB-468, MDA-MB-231, Panc-1 and v-Src NIH 3T3 cells): very effective at reducing the levels of tyrosine phosphorylated STAT3
- phosphotyrosine STAT3 levels after STAT3 immunoprecipitation ([3]; 10 μM, 4 hr, A549 and MDA-MB-468 cells): reduced phosphotyrosine STAT3 to barely detectable levels
- levels of tyrosine phosphorylated STAT3, various concentrations ([3]; A549 and MDA-MB-468 cells, 0-10 μM, 4 hr): reduction of the levels of tyrosine phosphorylated STAT3; also recorded: suppression of phospho-STAT3 levels in both cell lines
- inhibition of phospho STAT3 levels (in words) ([3]; A-549 cells, 0-10 μM): inhibits both phospho STAT3 and phospho JAK2 levels
- pIC50 ([3]; A-549 cells, Western blotting, read-out: IC50 for phospho-STAT3): 6.70
- pIC50 ([3]; read-out: IC50 as suppressor of the JAK/STAT3 tumor survival pathway): 6.70
- average size of B16-F10 tumors [4]: 588±94
- inhibition of B16-F10 tumor growth [4]: 56%
